Source: patent publication US5474988A, “5-phenylpyrrolo-1,4-benzoxazine and 5-phenylpyrrolo-1,4-benzothiazine compounds, process and intermediates for their production and pharmaceutical compositions containing them” (Kali-Chemie Pharma GmbH, priority 1993, dated 1995)

Assays:
[1] = test system: P.A.F.-induced aggregation of blood platelets; experiment: anti-P.A.F. action in vitro (P.A.F.-induced platelet aggregation); type: cell-based; conditions: Oryctolagus cuniculus, 10^-5 mole/liter, read-out: Anti-P.A.F. activity in vitro, % inhibition of the P.A.F.-induced aggregation of blood platelets from rabbit blood
Outline: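 Washed rabbit platelets (4×10^9/ml stock suspension, aspirin-lysine treated) in modified Tyrode buffer pH 7.4 with 1.3 mM CaCl2 and gelatine; test substance at 10^-5 mol/l final, 90 s preincubation before P.A.F. Aggregation followed 4-5 min by aggregometer; % inhibition of P.A.F.-induced aggregation increase calculated.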

5-lipoxygenase = molecular target: T1, 5-lipoxygenase (Homo sapiens, UniProt P09917); experiment: 5-lipoxygenase inhibition in human blood (LTB4 formation); type: cell-based; conditions: 0.5 h; 10^-5 mole/liter; human whole blood, 37° C.; read-out: In vitro % inhibitory activity on LTB4 formation in human blood stimulated by calcimycin
T1 construct: the 5-LO activity in human whole blood; from tissue; host or cells: heparinized human whole blood
T1 sequence (P09917 1-674): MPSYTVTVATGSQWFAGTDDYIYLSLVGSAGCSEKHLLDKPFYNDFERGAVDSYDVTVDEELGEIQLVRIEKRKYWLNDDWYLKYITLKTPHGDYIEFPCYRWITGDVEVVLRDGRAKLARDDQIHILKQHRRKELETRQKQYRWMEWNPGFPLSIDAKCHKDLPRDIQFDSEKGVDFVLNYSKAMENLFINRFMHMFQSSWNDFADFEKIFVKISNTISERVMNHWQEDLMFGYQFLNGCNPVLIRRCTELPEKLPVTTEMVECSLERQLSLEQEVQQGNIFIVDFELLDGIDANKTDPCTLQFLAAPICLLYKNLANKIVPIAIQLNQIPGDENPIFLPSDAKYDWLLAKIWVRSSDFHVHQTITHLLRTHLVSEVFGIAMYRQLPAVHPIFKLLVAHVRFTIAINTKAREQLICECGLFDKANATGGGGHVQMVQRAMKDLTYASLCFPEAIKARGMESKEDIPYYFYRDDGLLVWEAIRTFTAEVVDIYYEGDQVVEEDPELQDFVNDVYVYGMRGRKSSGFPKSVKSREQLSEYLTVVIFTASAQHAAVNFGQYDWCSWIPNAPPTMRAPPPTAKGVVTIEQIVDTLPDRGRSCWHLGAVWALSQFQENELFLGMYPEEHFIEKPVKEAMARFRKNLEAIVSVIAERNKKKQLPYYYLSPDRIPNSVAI
Method: 4c. In vitro determination of 5-lipoxygenase inhibition in human blood.
The inhibitory activity of the test substances on the 5-LO activity in human whole blood taking place after stimulation by calcimycin is investigated according to the method described by P. Gresele et al. (Biochem. Biophys. Commun. 137 (1986), 334).
For carrying out the test, human blood is collected in sterile 50 ml test tubes which contain 10 units of heparin/ml of blood and incubated for 5-10 minutes at 37° C. Amounts of test substance, dissolved in 10 μl of dimethylformamide, are added to 2 ml samples of this blood such that a final concentration of test substance of 10 μmol/l is achieved in the samples. Only 10 μl of the solvent were added to control samples. The samples were then incubated for 10 minutes at 37° C. In order to stimulate LTB4 synthesis, an amount of calcimycin, dissolved in 200 μl of plasma, was added to the samples such that a calcimycin concentration of 60 μmol/l was achieved, and the samples were incubated for a further 30 minutes at 37° C. The reaction was then terminated by addition of 200 μl of an ethylene glycol tetraacetate solution (corresponding to an ethylene glycol acetate concentration in the sample of 100 mmol/l). The samples are kept in an ice-bath for 10 minutes and then centrifuged (5 minutes at 1000×g). The supernantant liquids, which contain the LTB4 formed during the reaction time, are each separated and, for precipitation of the proteins contained therein, mixed with 3 ml of acetone and kept for 45 minutes at 4° C. Then the samples are centrifuged again (5 minutes at 1500×g), the supernatant liquids are separated, and the content of LTB4 therein is determined in a known manner by means of an enzyme immunoassay (=EIA). From the measured LTB4 values, the inhibitory activity of the test substances in human whole blood was calculated in % inhibition of LTB4 synthesis in comparison to the control samples containing no test substance.

Structure (SMILES)	inhibition at 10 µM [1] [%]	inhibition at 10 µM (5-lipoxygenase) [%]
COc1cc(-c2c(C)c3c(O)ccc4c3n2CC(CCC(=O)N2CCN(c3ccccn3)CC2)O4)cc(C)c1O (centres unmarked) [Example 72]	79	95
COc1ccc2c3c1c(C)c(-c1ccc(O)cc1)n3CC(CCN1CCN(c3cc(C)ccn3)CC1)O2 (centres unmarked) [Example 3, 2,3-Dihydro-5-(4-hydroxyphenyl)-7-methoxy-6-methyl-2-[2-(4-(4-methylpyridin-2-yl)piperazin-1-yl)ethyl]pyrrolo[1,2,3-de]-1,4-benzoxazine]	92	–
Cc1ccnc(N2CCN(CCCC3Cn4c(-c5cc(C)c(O)c(C)c5)c(C)c5c(O)ccc(c54)O3)CC2)c1 (centres unmarked) [Example 73]	–	100
Cc1ccnc(N2CCN(CCC3Cn4c(-c5ccc(O)cc5)c(C)c5c(O)ccc(c54)O3)CC2)c1 (centres unmarked) [Example 4, 2,3-Dihydro-7-hydroxy-5-(4-hydroxyphenyl)-6-methyl-2-[2-(4-(4-methylpyridin-2-yl)piperazin-1-yl)ethyl]pyrrolo[1,2,3-de]-1,4-benzoxazine]	99	86
Cc1ccnc(N2CCN(C(=O)CCC3Cn4c(-c5cc(C)c(O)c(C)c5)c(C)c5c(O)ccc(c54)O3)CC2)c1 (centres unmarked) [Example 67]	97	100
Cc1cc(-c2c(C)c3cccc4c3n2CC(CCCCN2CCN(c3ccccn3)CC2)O4)cc(C)c1O (centres unmarked) [Example 65]	52	–
COc1cc2c3c(c1)c(C)c(-c1cc(C)c(O)c(C)c1)n3CC(CCN1CCN(c3cc(C)ccn3)CC1)O2 (centres unmarked) [Example 43]	95	–
Cc1ccnc(N2CCN(C(=O)CCCC3Cn4c(-c5cc(C)c(O)c(C)c5)c(C)c5cccc(c54)O3)CC2)c1 (centres unmarked) [Example 9, 2,3-Dihydro-5-(3,5-dimethyl-4-hydroxyphenyl)-6-methyl-2-[4-(4-(4-methylpyridin-2-yl)piperazin-1-yl)-4-oxobutyl]-pyrrolo[1,2,3-de]-1,4-benzoxazine]	67	–
Cc1cccnc1N1CCN(CCCC2Cn3c(-c4cc(C)c(O)c(C)c4)c(C)c4c(O)ccc(c43)O2)CC1 (centres unmarked) [Example 74]	–	100
Cc1cc(-c2c(C)c3cccc4c3n2CC(CCCC(=O)N2CCN(c3ccccn3)CC2)O4)cc(C)c1O (centres unmarked) [Example 23]	66	–
Cc1cc(-c2c(C)c3c(OCc4ccccc4)ccc4c3n2CC(CCC(=O)N2CCN(c3ccccn3)CC2)O4)cc(C)c1O (centres unmarked) [Example 75]	–	96
Cc1cc(-c2c(C)c3cccc4c3n2CC(CCC(=O)N2CCN(c3ccccn3)CC2)O4)cc(C)c1O (centres unmarked) [Example 26]	82	–
Cc1ccnc(N2CCN(C(=O)CCC3Cn4c(-c5ccc(O)cc5)c(C)c5cccc(c54)O3)CC2)c1 (centres unmarked) [Example 15]	100	–
COc1cc(-c2c(C)c3cccc4c3n2CC(CCN2CCN(c3cc(C)ccn3)CC2)O4)ccc1O (centres unmarked) [Example 12]	93	–
Cc1ccnc(N2CCN(CCC3Cn4c(-c5cc(C)c(O)c(C)c5)c(C)c5cccc(c54)O3)CC2)c1 (centres unmarked) [Example 20]	92	–
Cc1ccnc(N2CCN(CCC3Cn4c(-c5ccc(O)c(O)c5)c(C)c5cccc(c54)O3)CC2)c1 (centres unmarked) [Example 13]	94	–
Cc1ccnc(N2CCN(C(=O)CCC3Cn4c(-c5cc(C)c(O)c(C)c5)c(C)c5cccc(c54)O3)CC2)c1 (centres unmarked) [Example 25]	91	–
Cc1ccnc(N2CCN(CCC3Cn4c(-c5cc(C)c(O)c(C)c5)c(C)c5cc(F)cc(c54)O3)CC2)c1 (centres unmarked) [Example 42]	40	–
Cc1ccnc(N2CCN(CCC3Cn4c(-c5cc(C)c(O)c(C)c5)c(C)c5cc(O)cc(c54)O3)CC2)c1 (centres unmarked) [Example 44]	99	–
Cc1ccnc(N2CCN(CCC3Cn4c(-c5cc(C)c(O)c(C)c5)c(C)c5c(F)ccc(c54)O3)CC2)c1 (centres unmarked) [Example 28]	83	–
Cc1ccnc(N2CCN(CCCC3Cn4c(-c5cc(C)c(O)c(C)c5)c(C)c5c(F)ccc(c54)O3)CC2)c1 (centres unmarked) [Example 29]	50	–
Cc1cc(-c2c(C)c3c(O)ccc4c3n2CC(CCC(=O)N2CCN(c3ccccn3)CC2)O4)cc(C)c1O (centres unmarked) [Example 71]	84	100
Cc1ccc(N2CCN(C(=O)CCC3Cn4c(-c5ccc(O)cc5)c(C)c5cccc(c54)O3)CC2)nc1 (centres unmarked) [Example 34]	77	–
Cc1ccnc(N2CCN(C(=O)CCC3Cn4c(-c5ccc(O)cc5)c(C)c5c(O)ccc(c54)O3)CC2)c1 (centres unmarked) [Example 69]	97	95
